These are literature values, as cited in US20130195996A1, “METHOD OF PRODUCING PLEURODESIS” (CAREFUSION 2200, INC., priority 2010, published 2013).

Data set [1] concerns rabbits.
In data set [2] the test system is rabbits. The settings on record: single dosage administration of 0.1% silver nitrate (Marchi et al. 2005).
For data set [3] the following is noted: known methods, high dosages such as 10% concentration (typically 200 mg AgNO3), single dosage.
Setting [4] is: 2 mL of 0.25% silver nitrate (Vargas et al. 2001).

Structures are written as SMILES.

`O=[N+]([O-])[O-].[Ag+]` [silver nitrate]: in the data set on rabbits [1] (setting [4]), the “persistence of pleurodesis result” value was “persists for at least a year” and the pleurodesis result is reported as “relatively superior pleurodesis result”. The pleurodesis result in the data set with rabbits [1] (intrapleural injection of 0.5% silver nitrate (Texeira et al. 2003)) is “significant pleurodesis”. The sclerosing effects entry with rabbits [1] (single intrapleural injection of 0.25% silver nitrate (Texeira et al. 2003)) is given as “no sclerosing effects”. Besides, the pleural inflammation result in the data set with rabbits [2] is reported as “relatively intense pleural inflammation”. The “adverse effects associated with injection into the pleural space” value in data set [3] was “severe pain, fever, and relatively large amount of effusion”.
